From PubChem BioAssay AID1963838 (Molecular Pharmacology Branch, DTP, NCI, 2024)

Tested on: 855422-203-R-J1-PDC complex spheroid viability
Assay: Anticancer human tumor 855422-203-R-J1-PDC patient-derived bladder carcinoma cell line growth inhibition [POLQ]
Settings: for IC50: curve of first compound; for viability, T/C: stronger effect = lower value
Experimental: Multicellular complex tumor spheroid response to Polymerase (POL) inhibitors (novobiocin, ART-558, RP6685) in combination with a variety of drugs and investigational agents in selected tumor cell lines
The POL inhibitors (novobiocin, ART-558, and RP6685) were evaluated both individually and in combination with standard of care and investigational anticancer small molecules within a complex spheroid model of solid tumors. . Complex spheroids include a stromal component modeled by human endothelial cells (HUVEC) and fibroblasts modeled by human mesenchymal stem cells (MSCs). The concentration ranges selected for each drug and investigational agent were based upon clinically achievable concentrations if the clinical Cmax of the agent was known.
Compounds. The drugs and investigational agents: novobiocin (NSC847541), ART-558 (NSC835418), RP-6685 (NSC848927), peposertib (NSC802822), ceralasertib (NSC780249), elimusertib (NSC800525), camonsertib (NSC841442), AZD-1390 (NSC803789), olaparib (NSC753686), talazoparib (NSC767125), rucaparib (NSC756644), sotorasib (NSC818433), MRTX-1133 (NSC836407), SN-38 (NSC673596), topotecan (NSC609699), epotoside (NSC141540), doxorubicin (NSC123127), gemcitabine (NSC613327), 5-fluorouracil (NSC19893), paclitaxel (NSC125973), vemurafenib (NSC761431), MSA-2 (NSC828583), SN-011 (NSC837082), adavosertib (NSC754352), prexasertib (NSC758257), carboplatin (NSC241240) and oxaliplatin (NSC266046), were obtained from the National Cancer Institute (NCI) Developmental Therapeutics Program Chemical Repository (21). The FDA-approved anticancer drug set is available from the Developmental Therapeutics Program at https://dtp.cancer.gov/organization/dscb/obtaining/. […] The stock solutions were prepared in dimethyl sulfoxide (DMSO, Sigma-Aldrich, St. Louis, MO, cat. D2650), except for the platinum compounds which were prepared in saline (Quality Biological, Gaithersburg, MD, cat. 114-055-101), at 800-fold the tested concentration and stored at -70 degrees C prior to their use. All drugs and investigational agents were tested over a range starting from a high concentration at or near the clinical Cmax and decreasing in half-log increments. If the clinical Cmax for an agent had not been determined, the highest concentration tested was 10 microM, except for SN-38, which was tested at a high concentration of 1 microM.
Cell Culture. All cells were maintained in an incubator at 37 degrees C and 5% CO2 with 95% humidity. The PDC lines were cultured according to standard operating procedures established by the NCI PDMR (https://pdmr.cancer.gov). Table 3 of the manuscript, lists the cell lines along with the number of the three cell types plated to form the mct-spheroids and media for tumor cell growth. After thawing, all PDC lines, except 997537-175-T-J1-PDC and 415267-285-R-J2-PDC, were cultured in Matrigel-coated flasks prepared with a working solution of 1X Ham's F-12 nutrient mix, without supplementation (Thermo Fisher Scientific, cat. 11765054), 100 U/mL penicillin-streptomycin (Thermo Fisher Scientific, cat. 15140122), and 2.5% Matrigel (Corning Inc., Corning, NY, cat. 354248) for the first three passages. The two PDC lines 997537-175-T-J1-PDC and 415267-285-R-J2-PDC were cultured on uncoated flasks. The 857933-349-R-J2-PDC line was cultured in 6C/Colon 1B media containing advanced DMEM/F-12 (Thermo Fisher Scientific, cat. 12634028), 10 mM HEPES (Thermo Fisher Scientific, cat. 15630080), 1X GlutaMAX supplement (Thermo Fisher Scientific, cat. 35050061), 0.1 mg/mL primocin (InvivoGen, San Diego, CA, cat. ant-pm-2), 10% defined fetal bovine serum, heat inactivated (HyClone Laboratories Inc., Logan, UT, cat. SH30070.03HI), 50% L-WRN conditioned media (ATCC, cat. CRL-3276), 1.25 mM N-Acetyl-L-cysteine (Sigma-Aldrich, cat. A9165), 10 mM nicotinamide (Sigma-Aldrich, cat. N0636), 1X B-27 supplement (Thermo Fisher Scientific, cat. 17504044), 1X N-2 supplement (Thermo Fisher Scientific, cat. […]

[1] = second compound 0.0316 µM, first compound 0.0316 µM
[2] = second compound 0.0316 µM, first compound 0.1 µM
[3] = second compound 0.0316 µM, first compound 0.316 µM
[4] = second compound 0.0316 µM, first compound 1 µM
[5] = second compound 0.0316 µM, first compound 3.16 µM
[6] = second compound 0.0316 µM, first compound 10 µM
[7] = second compound 0.1 µM, first compound 0.0316 µM
[8] = second compound 0.1 µM, first compound 0.1 µM
[9] = second compound 0.1 µM, first compound 0.316 µM
[10] = second compound 0.1 µM, first compound 1 µM
[11] = second compound 0.1 µM, first compound 3.16 µM
[12] = second compound 0.1 µM, first compound 10 µM
[13] = second compound 0.316 µM, first compound 0.0316 µM
[14] = second compound 0.316 µM, first compound 0.1 µM
[15] = second compound 0.316 µM, first compound 0.316 µM
[16] = second compound 0.316 µM, first compound 1 µM
[17] = second compound 0.316 µM, first compound 3.16 µM
[18] = second compound 0.316 µM, first compound 10 µM
[19] = second compound 1 µM, first compound 0.0316 µM
[20] = second compound 1 µM, first compound 0.1 µM
[21] = second compound 1 µM, first compound 0.316 µM
[22] = second compound 1 µM, first compound 1 µM
[23] = second compound 1 µM, first compound 3.16 µM
[24] = second compound 1 µM, first compound 10 µM
[25] = second compound 3.16 µM, first compound 0.0316 µM
[26] = second compound 3.16 µM, first compound 0.1 µM
[27] = second compound 3.16 µM, first compound 0.316 µM
[28] = second compound 3.16 µM, first compound 1 µM
[29] = second compound 3.16 µM, first compound 3.16 µM
[30] = second compound 3.16 µM, first compound 10 µM
[31] = second compound 10 µM, first compound 0.0316 µM
[32] = second compound 10 µM, first compound 0.1 µM
[33] = second compound 10 µM, first compound 0.316 µM
[34] = second compound 10 µM, first compound 1 µM
[35] = second compound 10 µM, first compound 3.16 µM
[36] = second compound 10 µM, first compound 10 µM
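Also: spheroids exposed to compounds for seven days before readout.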

COc1cc(C2c3cc4c(cc3C(OC3OC5COC(C)OC5C(O)C3O)C3COC(=O)C23)OCO4)cc(OC)c1O (centres undefined) + COC1C(OC(N)=O)C(O)C(Oc2ccc3c(O)c(NC(=O)c4ccc(O)c(CC=C(C)C)c4)c(=O)oc3c2C)OC1(C)C
IC50 (second compound 0.0316 µM): 242 nM | IC50 (second compound 0.1 µM): 245 nM | IC50 (second compound 0.316 µM): 227 nM | IC50 (second compound 1 µM): 234 nM | IC50 (second compound 3.16 µM): 210 nM | IC50 (second compound 10 µM): 215 nM | viability, T/C [1]: 99.4% | viability, T/C [2]: 99.7% | viability, T/C [3]: 35.1% | viability, T/C [4]: 11.9% | viability, T/C [5]: 8.5% | viability, T/C [6]: 5.28% | viability, T/C [7]: 95.2% | viability, T/C [8]: 102% | viability, T/C [9]: 36.2% | viability, T/C [10]: 12.8% | viability, T/C [11]: 7.81% | viability, T/C [12]: 4.05% | viability, T/C [13]: 99.2% | viability, T/C [14]: 103% | viability, T/C [15]: 29.4% | viability, T/C [16]: 13.3% | viability, T/C [17]: 8.9% | viability, T/C [18]: 5.06% | viability, T/C [19]: 107% | viability, T/C [20]: 99.7% | viability, T/C [21]: 32.2% | viability, T/C [22]: 11.6% | viability, T/C [23]: 7.12% | viability, T/C [24]: 4.08% | viability, T/C [25]: 128% | viability, T/C [26]: 85.9% | viability, T/C [27]: 29.5% | viability, T/C [28]: 12.7% | viability, T/C [29]: 8.6% | viability, T/C [30]: 4.59% | viability, T/C [31]: 111% | viability, T/C [32]: 88.8% | viability, T/C [33]: 29.9% | viability, T/C [34]: 12.9% | viability, T/C [35]: 7.13% | viability, T/C [36]: 5.19%

COc1cccc2c1C(=O)c1c(O)c3c(c(O)c1C2=O)CC(O)(C(=O)CO)CC3OC1CC(N)C(O)C(C)O1 (centres undefined) + COC1C(OC(N)=O)C(O)C(Oc2ccc3c(O)c(NC(=O)c4ccc(O)c(CC=C(C)C)c4)c(=O)oc3c2C)OC1(C)C
IC50 (second compound 0.0316 µM): < 31.6 nM | IC50 (second compound 0.1 µM): < 31.6 nM | IC50 (second compound 0.316 µM): < 31.6 nM | IC50 (second compound 1 µM): < 31.6 nM | IC50 (second compound 3.16 µM): < 31.6 nM | IC50 (second compound 10 µM): < 31.6 nM | viability, T/C [1]: 12.4% | viability, T/C [2]: 11.1% | viability, T/C [3]: 1.99% | viability, T/C [4]: 0.29% | viability, T/C [5]: 0.38% | viability, T/C [6]: 1.85% | viability, T/C [7]: 15.1% | viability, T/C [8]: 10.9% | viability, T/C [9]: 3.53% | viability, T/C [10]: 0.21% | viability, T/C [11]: 0.32% | viability, T/C [12]: 1.27% | viability, T/C [13]: 14.5% | viability, T/C [14]: 10.1% | viability, T/C [15]: 1.84% | viability, T/C [16]: 0.63% | viability, T/C [17]: 0.37% | viability, T/C [18]: 1.74% | viability, T/C [19]: 18.5% | viability, T/C [20]: 10.4% | viability, T/C [21]: 2.23% | viability, T/C [22]: 0.32% | viability, T/C [23]: 0.3% | viability, T/C [24]: 2.92% | viability, T/C [25]: 15.4% | viability, T/C [26]: 10.4% | viability, T/C [27]: 2.63% | viability, T/C [28]: 0.31% | viability, T/C [29]: 0.58% | viability, T/C [30]: 1.48% | viability, T/C [31]: 16.2% | viability, T/C [32]: 9.82% | viability, T/C [33]: 2.61% | viability, T/C [34]: 0.29% | viability, T/C [35]: 0.47% | viability, T/C [36]: 1.58%
